{"source": "patent US9695155B2", "about": "“Herbicidal substituted pyrimidinyloxy benzene compounds” (E. I. DU PONT DE NEMOURS AND COMPANY, priority 2013, dated 2017)", "key": {"barnyardgrass [1]": {"test_system": "barnyardgrass", "test": "Test A preemergence", "type": "in vivo, Echinochloa crus-galli", "summary_of_the_method": "(§1)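 Visual injury scored 0–100 (100 = complete control) against untreated controls about 10 days after treatment in a greenhouse. Test chemicals, formulated with surfactant in non-phytotoxic solvent, were sprayed on soil preemergence or on 2-10 cm, one- to two-leaf plants postemergence.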"}, "morningglory": {"test_system": "morningglory", "test": "Test A postemergence", "type": "in vivo, Ipomoea spp.", "settings": "0 to 100 scale where 0 is no effect and 100 is complete control", "summary_of_the_method": "as §1"}, "wheat": {"test_system": "wheat", "test": "Test A postemergence", "type": "in vivo, Triticum aestivum", "settings": "Triticum aestivum, post-emergence, 240 h, 0 to 100 scale where 0 is no effect and 100 is complete control", "summary_of_the_method": "as §1"}, "rice": {"test_system": "rice", "test": "Test B flooded paddy test", "type": "in vivo, Oryza sativa", "settings": "Oryza sativa; Flood, 250 g ai/ha; 0 to 100 scale where 0 is no effect and 100 is complete control; read-out: Plant response rating, Rice", "summary_of_the_method": "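Seedlings are raised to two leaves, flooded to a depth of 3 cm and dosed by adding the compound to the floodwater. Water level is kept constant, and plants are scored visually versus controls 13–15 days later (0 = no effect, 100 = complete control).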"}, "blackgrass [2]": {"test_system": "blackgrass", "test": "Test C preemergence", "type": "in vivo, Alopecurus myosuroides", "settings": "Alopecurus myosuroides, pre-emergence", "summary_of_the_method": "(§2)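 Seeds are planted in blended loam soil and sand and treated preemergence, while seedlings in a peat moss/vermiculite medium receive postemergence sprays at 2 to 18 cm height. All plants stay in the greenhouse for 13 to 15 days before visual comparison with controls on a 0–100 scale.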"}, "wheat, winter": {"test_system": "wheat, winter", "test": "Test C preemergence", "type": "in vivo, Triticum aestivum", "settings": "Triticum aestivum, pre-emergence", "summary_of_the_method": "as §2"}, "large (Lg) crabgrass": {"test_system": "large (Lg) crabgrass", "test": "Test C preemergence", "type": "in vivo, Digitaria sanguinalis", "settings": "Digitaria sanguinalis, pre-emergence", "summary_of_the_method": "as §2"}, "soybean [3]": {"test_system": "soybean", "test": "Test C preemergence", "type": "in vivo, Glycine max", "settings": "Glycine max, pre-emergence", "summary_of_the_method": "as §2"}, "barnyardgrass [4]": {"test_system": "barnyardgrass", "test": "Test C preemergence", "type": "in vivo, Echinochloa crus-galli", "settings": "Echinochloa crus-galli, pre-emergence", "summary_of_the_method": "as §2"}, "blackgrass [5]": {"test_system": "blackgrass", "test": "Test C postemergence", "type": "in vivo, Alopecurus myosuroides", "settings": "Alopecurus myosuroides, post-emergence", "summary_of_the_method": "as §2"}, "giant foxtail": {"test_system": "giant foxtail", "test": "Test C postemergence", "type": "in vivo, Setaria faberii", "settings": "Setaria faberi, post-emergence", "summary_of_the_method": "as §2"}, "ragweed": {"test_system": "ragweed", "test": "Test C postemergence", "type": "in vivo, Ambrosia elatior", "summary_of_the_method": "as §2"}, "soybean [6]": {"test_system": "soybean", "test": "Test C postemergence", "type": "in vivo, Glycine max", "summary_of_the_method": "as §2"}, "oilseed rape": {"test_system": "oilseed rape", "test": "Test C postemergence", "type": "in vivo, Brassica napus", "summary_of_the_method": "as §2"}, "[7]": {"settings": "31 g ai/ha, postemergence, visual rating, scale 0 to 100 (0 no effect, 100 complete control), 13 to 15 days"}}, "data": [{"molecule": "FC(F)c1cccc(Oc2ncc(Cl)cn2)c1-n1cc(Br)cn1", "note": "[Compound 194, 2-[2-(4-bromo-1H-pyrazol-1-yl)-3-(difluoromethyl)phenoxy]-5-chloropyrimidine]", "values": [{"measurement": "Barnyardgrass plant response rating (0 to 100 scale, 0 is no effect, 100 is complete control)", "setting": "barnyardgrass [1]; 125 g ai/ha", "value": 80}, {"measurement": "pest or weed control at 500 g/ha", "setting": "barnyardgrass [1]; Echinochloa crus-galli, pre-emergence, 240 h, 500 g ai/ha, 0 to 100 scale where 0 is no effect and 100 is complete control, read-out: Barnyardgrass plant response rating", "value": 100, "unit": "%"}, {"measurement": "Morningglory plant response rating", "setting": "morningglory; 125 g ai/ha", "value": 90}, {"measurement": "pest or weed control at 500 g/ha", "setting": "morningglory; Ipomoea, post-emergence, 240 h, 500 g ai/ha, read-out: Plant response rating, Morningglory", "value": 100, "unit": "%"}, {"measurement": "plant injury at 125 g/ha", "setting": "wheat; 125 g ai/ha, read-out: Wheat plant response rating", "value": 30, "unit": "%"}, {"measurement": "plant injury at 500 g/ha", "setting": "wheat; 500 g ai/ha, read-out: Plant response rating, Wheat", "value": 60, "unit": "%"}, {"measurement": "plant injury at 250 g/ha", "setting": "rice", "value": 0, "unit": "%"}, {"measurement": "pest or weed control at 125 g/ha", "setting": "blackgrass [2]; 125 g ai/ha, preemergence, scale 0 (no effect) to 100 (complete control), read-out: Blackgrass plant response rating", "value": 90, "unit": "%"}, {"measurement": "pest or weed control at 250 g/ha", "setting": "blackgrass [2]; 250 g ai/ha, preemergence, scale 0 (no effect) to 100 (complete control), read-out: Blackgrass plant response rating", "value": 90, "unit": "%"}, {"measurement": "pest or weed control at 62 g/ha", "setting": "blackgrass [2]; Preemergence, 62 g ai/ha, scale 0 to 100, 0 no effect, 100 complete control, read-out: Plant response rating, Blackgrass", "value": 50, "unit": "%"}, {"measurement": "plant injury at 125 g/ha", "setting": "wheat, winter; 125 g ai/ha, preemergence, scale 0 (no effect) to 100 (complete control), read-out: Wheat plant response rating", "value": 0, "unit": "%"}, {"measurement": "plant injury at 250 g/ha", "setting": "wheat, winter; 250 g ai/ha, preemergence, scale 0 (no effect) to 100 (complete control), read-out: Wheat plant response rating", "value": 35, "unit": "%"}, {"measurement": "plant injury at 62 g/ha", "setting": "wheat, winter; Preemergence, 62 g ai/ha, scale 0 to 100, 0 no effect, 100 complete control, read-out: Plant response rating, Wheat", "value": 0, "unit": "%"}, {"measurement": "pest or weed control at 125 g/ha", "setting": "large (Lg) crabgrass; 125 g ai/ha, preemergence, scale 0 (no effect) to 100 (complete control), read-out: Crabgrass, Large plant response rating", "value": 100, "unit": "%"}, {"measurement": "pest or weed control at 250 g/ha", "setting": "large (Lg) crabgrass; 250 g ai/ha, preemergence, scale 0 (no effect) to 100 (complete control), read-out: Crabgrass, Large plant response rating", "value": 100, "unit": "%"}, {"measurement": "pest or weed control at 62 g/ha", "setting": "large (Lg) crabgrass; Preemergence, 62 g ai/ha, scale 0 to 100, 0 no effect, 100 complete control, read-out: Plant response rating, Crabgrass, Large", "value": 98, "unit": "%"}, {"measurement": "plant injury at 125 g/ha", "setting": "soybean [3]; 125 g ai/ha, preemergence, scale 0 (no effect) to 100 (complete control), read-out: Soybean plant response rating", "value": 25, "unit": "%"}, {"measurement": "plant injury at 250 g/ha", "setting": "soybean [3]; 250 g ai/ha, preemergence, scale 0 (no effect) to 100 (complete control), read-out: Soybean plant response rating", "value": 45, "unit": "%"}, {"measurement": "plant injury at 62 g/ha", "setting": "soybean [3]; Preemergence, 62 g ai/ha, scale 0 to 100, 0 no effect, 100 complete control, read-out: Plant response rating, Soybean", "value": 20, "unit": "%"}, {"measurement": "pest or weed control at 125 g/ha", "setting": "barnyardgrass [4]; 125 g ai/ha, preemergence, scale 0 (no effect) to 100 (complete control), read-out: Barnyardgrass plant response rating", "value": 100, "unit": "%"}, {"measurement": "pest or weed control at 250 g/ha", "setting": "barnyardgrass [4]; 250 g ai/ha, preemergence, scale 0 (no effect) to 100 (complete control), read-out: Barnyardgrass plant response rating", "value": 100, "unit": "%"}, {"measurement": "pest or weed control at 62 g/ha", "setting": "barnyardgrass [4]; Preemergence, 62 g ai/ha, scale 0 to 100, 0 no effect, 100 complete control, read-out: Plant response rating, Barnyardgrass", "value": 85, "unit": "%"}, {"measurement": "pest or weed control at 31 g/ha", "setting": "blackgrass [5]; 31 g ai/ha, postemergence, visual rating, scale 0 to 100 (0 no effect, 100 complete control), 13 to 15 days, read-out: Blackgrass plant response rating", "value": 15, "unit": "%"}, {"measurement": "pest or weed control at 125 g/ha", "setting": "blackgrass [5]; 125 g ai/ha, postemergence, visual rating, scale 0 to 100 (0 no effect, 100 complete control), read-out: Plant response rating, Blackgrass", "value": 30, "unit": "%"}, {"measurement": "pest or weed control at 250 g/ha", "setting": "blackgrass [5]; 250 g ai/ha, postemergence, read-out: Plant response rating (0 to 100), Blackgrass", "value": 35, "unit": "%"}, {"measurement": "pest or weed control at 62 g/ha", "setting": "blackgrass [5]; Postemergence, 62 g ai/ha, scale 0 to 100 (0 no effect, 100 complete control), 13 to 15 days, read-out: Plant response rating, Blackgrass", "value": 20, "unit": "%"}, {"measurement": "pest or weed control at 31 g/ha", "setting": "giant foxtail; 31 g ai/ha, postemergence, visual rating, scale 0 to 100 (0 no effect, 100 complete control), 13 to 15 days, read-out: Foxtail, Giant plant response rating", "value": 10, "unit": "%"}, {"measurement": "pest or weed control at 125 g/ha", "setting": "giant foxtail; 125 g ai/ha, postemergence, visual rating, scale 0 to 100 (0 no effect, 100 complete control), read-out: Plant response rating, Foxtail, Giant", "value": 15, "unit": "%"}, {"measurement": "pest or weed control at 250 g/ha", "setting": "giant foxtail; 250 g ai/ha, postemergence, read-out: Plant response rating (0 to 100), Foxtail, Giant", "value": 15, "unit": "%"}, {"measurement": "pest or weed control at 62 g/ha", "setting": "giant foxtail; Postemergence, 62 g ai/ha, scale 0 to 100 (0 no effect, 100 complete control), 13 to 15 days, read-out: Plant response rating, Foxtail, Giant", "value": 10, "unit": "%"}, {"measurement": "Ragweed plant response rating", "setting": "ragweed; [7]", "value": 15}, {"measurement": "pest or weed control at 125 g/ha", "setting": "ragweed; Ambrosia artemisiifolia, post-emergence, 125 g ai/ha, postemergence, visual rating, scale 0 to 100 (0 no effect, 100 complete control), read-out: Plant response rating, Ragweed", "value": 50, "unit": "%"}, {"measurement": "pest or weed control at 250 g/ha", "setting": "ragweed; Ambrosia artemisiifolia, post-emergence, 250 g ai/ha, postemergence, read-out: Plant response rating (0 to 100), Ragweed", "value": 50, "unit": "%"}, {"measurement": "pest or weed control at 62 g/ha", "setting": "ragweed; Ambrosia artemisiifolia, post-emergence, Postemergence, 62 g ai/ha, scale 0 to 100 (0 no effect, 100 complete control), 13 to 15 days, read-out: Plant response rating, Ragweed", "value": 25, "unit": "%"}, {"measurement": "Soybean plant response rating", "setting": "soybean [6]; [7]", "value": 30}, {"measurement": "Soybean plant response rating (crop injury, 0-100 scale) at 125 g/ha", "setting": "soybean [6]; Glycine max, post-emergence, 125 g ai/ha, postemergence, visual rating, scale 0 to 100 (0 no effect, 100 complete control), read-out: Plant response rating, Soybean", "value": 75, "unit": "%"}, {"measurement": "Soybean plant response rating (crop injury, 0-100 scale) at 250 g/ha", "setting": "soybean [6]; Glycine max, post-emergence, 250 g ai/ha, postemergence", "value": 85, "unit": "%"}, {"measurement": "Soybean plant response rating (crop injury, 0-100 scale) at 62 g/ha", "setting": "soybean [6]; Glycine max, post-emergence, Postemergence, 62 g ai/ha, scale 0 to 100 (0 no effect, 100 complete control), 13 to 15 days", "value": 50, "unit": "%"}, {"measurement": "Oilseed Rape plant response rating", "setting": "oilseed rape; [7]", "value": 30}, {"measurement": "plant injury at 125 g/ha", "setting": "oilseed rape; Brassica napus, post-emergence, 125 g ai/ha, postemergence, visual rating, scale 0 to 100 (0 no effect, 100 complete control), read-out: Plant response rating, Oilseed Rape", "value": 85, "unit": "%"}, {"measurement": "plant injury at 250 g/ha", "setting": "oilseed rape; Brassica napus, post-emergence, 250 g ai/ha, postemergence, read-out: Plant response rating (0 to 100), Oilseed Rape", "value": 90, "unit": "%"}, {"measurement": "plant injury at 62 g/ha", "setting": "oilseed rape; Brassica napus, post-emergence, Postemergence, 62 g ai/ha, scale 0 to 100 (0 no effect, 100 complete control), 13 to 15 days, read-out: Plant response rating, Oilseed Rape", "value": 40, "unit": "%"}]}]}
